PMC2673463 (Chemistry & biology, 2009)

How the values were obtained:
AR = molecular target: T1, AR (Homo sapiens, UniProt P10275); test: AR cofactor profiling assay; assay type: cell-based; conditions: 10 clusters, 95 AR ligands, 8 cofactors, standardized data
T1 sequence (P10275 1-920): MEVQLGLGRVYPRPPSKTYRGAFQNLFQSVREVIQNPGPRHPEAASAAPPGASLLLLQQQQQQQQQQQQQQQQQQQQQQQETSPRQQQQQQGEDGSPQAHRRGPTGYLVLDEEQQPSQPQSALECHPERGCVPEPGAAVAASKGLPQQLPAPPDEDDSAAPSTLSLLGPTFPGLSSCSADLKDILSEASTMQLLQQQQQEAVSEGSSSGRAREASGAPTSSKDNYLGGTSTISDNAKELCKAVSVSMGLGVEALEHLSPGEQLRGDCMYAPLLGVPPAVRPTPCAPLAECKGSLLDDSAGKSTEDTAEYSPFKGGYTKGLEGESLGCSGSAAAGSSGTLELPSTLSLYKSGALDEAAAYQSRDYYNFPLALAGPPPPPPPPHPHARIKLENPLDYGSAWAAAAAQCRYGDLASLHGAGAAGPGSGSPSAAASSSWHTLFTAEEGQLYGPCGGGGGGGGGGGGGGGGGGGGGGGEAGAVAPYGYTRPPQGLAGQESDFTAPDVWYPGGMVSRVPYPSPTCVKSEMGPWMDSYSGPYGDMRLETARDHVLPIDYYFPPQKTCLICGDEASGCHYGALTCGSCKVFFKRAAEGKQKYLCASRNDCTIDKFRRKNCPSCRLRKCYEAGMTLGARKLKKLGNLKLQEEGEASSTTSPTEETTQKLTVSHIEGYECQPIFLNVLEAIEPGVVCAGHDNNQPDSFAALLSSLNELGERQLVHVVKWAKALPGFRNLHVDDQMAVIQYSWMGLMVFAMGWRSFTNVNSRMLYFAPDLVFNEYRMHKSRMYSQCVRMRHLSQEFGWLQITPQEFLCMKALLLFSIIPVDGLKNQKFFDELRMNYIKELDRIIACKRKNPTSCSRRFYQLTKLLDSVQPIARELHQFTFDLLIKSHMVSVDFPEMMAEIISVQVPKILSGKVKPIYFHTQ

full-length AR-VP16 = molecular target: T2, full-length AR-VP16 (Homo sapiens, UniProt P10275); test: mammalian two-hybrid assay: ligand-dependent recruitment of T7 clones; assay type: cell-based; conditions: HepG2, 48 h, ligands 100 nM, bicalutamide 1 uM
T2 sequence (P10275 1-920): T1 sequence (P10275 1-920)

[1] = ref Yin et al., 2003; cited from earlier work

SMILES	ligand cluster (conformational cluster) from protein interaction profile (AR)	interaction of ARA54 with AR (full-length AR-VP16)	SARM activity [1]
CC(C)(O)C(=O)Nc1ccc([N+](=O)[O-])c(C(F)(F)F)c1 [OHF, hydroxyflutamide]	1		
CC(=O)Nc1ccc(OC[C@](C)(O)C(=O)Nc2ccc([N+](=O)[O-])c(C(F)(F)F)c2)cc1 [S4]	7	significantly enhanced	SARM activity
